The compounds below were run on TEAD reporter-containing human breast cancer cell line MCF7 (assay: TEAD reporter (luciferase) assay). Conditions: TEAD reporter MCF7 cells, 24 hours treatment, 1% serum media.
Assay type: cell-based
Description: The TEAD reporter-containing human breast cancer cell line MCF7 (60618, BPS bioscience) was cultured according to the manufacturer's instructions. Cells were plated in 96-well white plates at a density of 30,000 per well and incubated overnight. The following day cells were treated with small molecules in 1% serum media (0.1% v/v DMSO). After 24 hours of the treatment, cell viability was evaluated by using CCK-8 reagent (CK04, Dojindo) and measuring absorbance at 450 nm. Then, the assay for luciferase activity was performed using Dual-Glo® Luciferase Assay System (Promega, E2940) following the manufacturer's instructions. Luminescence intensity was measured and the potency of the compounds was determined by IC50 value generated from non-linear regression analysis of the dose-response curves.
IC50 for luciferase activity are shown in the Table 1 below and designated within the following ranges. [+++: ≤0.1 μM, ++: >0.1 μM to ≤1 μM, +: >1 μM to ≤10 μM, −: >10 μM]
With C=CC(=O)Nc1ccc2c(c1)c(C1CCC(OC)CC1)cn2C (stereo not shown) [Example 126, N-(3-(4-Methoxycyclohexyl)-1-methyl-1H-indol-5-yl)acrylamide] the IC50 was > 10000 nM. For C=CC(=O)Nc1cnc2c(c1)c(-c1ccc(Cl)c(F)c1)cn2C(F)F [Example 133, N-(3-(4-Chloro-3-fluorophenyl)-1-(difluoromethyl)-1H-pyrrolo[2,3-b]pyridin-5-yl)acrylamide], the IC50 was 1000 to 10000 nM. Work on C=CC(=O)Nc1cnc2c(c1)c(/C=C/c1cccs1)cn2C [Example 82, (E)-N-(1-Methyl-3-(2-(thiophen-2-yl)vinyl)-1H-pyrrolo[2,3-b]pyridin-5-yl)acrylamide] yielded an IC50 of 100 to 1000 nM. With C=CC(=O)Nc1cc(F)c2c(c1)c(/C=C/C1CCC(F)(F)CC1)cn2C(C)C [Compound 38, (E)-N-(3-(2-(4,4-Difluorocyclohexyl)vinyl)-7-fluoro-1-isopropyl-1H-indol-5-yl)acrylamide] the IC50 was 1000 to 10000 nM. Compound C=CC(=O)Nc1cnc2c(c1)c(-c1ccc(SC)cc1)cn2C [Compound 55, N-(1-Methyl-3-(4-(methylthio)phenyl)-1H-pyrrolo[2,3-b]pyridin-5-yl)acrylamide] has an IC50 of 100 to 1000 nM. Compound C=CC(=O)Nc1cnc2c(c1)c(-c1cccc(Oc3ccccc3)c1)cn2C [Example 94, N-(1-Methyl-3-(3-phenoxyphenyl)-1H-pyrrolo[2,3-b]pyridin-5-yl)acrylamide] has an IC50 of 100 to 1000 nM. With C=CC(=O)Nc1cnc2c(c1)c(-c1ccc(CCCCCCCCC)cc1)cn2C [Example 112, N-(1-Methyl-3-(4-nonylphenyl)-1H-pyrrolo[2,3-b]pyridin-5-yl)acrylamide] the IC50 was > 10000 nM. In the case of C=CC(=O)Nc1cnc2c(c1)c(-c1ccc(CCCC)cc1)cn2C [Example 110, N-(3-(4-Butylphenyl)-1-methyl-1H-pyrrolo[2,3-b]pyridin-5-yl)acrylamide], the IC50 is reported as 100 to 1000 nM. With C=CC(=O)Nc1ccc2c(c1)c(C1=CCC(OC)CC1)cn2C (stereo not shown) [Example 125, N-(3-(4-Methoxycyclohex-1-en-1-yl)-1-methyl-1H-indol-5-yl)acrylamide] the IC50 was 1000 to 10000 nM. In the case of C=CC(=O)Nc1cnc2c(c1)c(/C=C/C1CC1C(=O)OCC)cn2C (stereo not shown) [Example 62, Ethyl (E)-2-(2-(5-acrylamido-1-methyl-1H-pyrrolo[2,3-b]pyridin-3-yl)vinyl)cyclopropane-1-carboxylate], the IC50 is reported as > 10000 nM.

The compounds below were run on MSTO-211H cells (assay: Proliferation assay (EdU incorporation), MSTO-211H). Conditions: Homo sapiens, 72 h, YAP-driven MSTO-211H (LATS1 mutation), 3 days with inhibitor, 1% serum.
Assay type: cell-based
Description: The anti-proliferative activity of TEAD inhibitors was evaluated in cells with different properties for YAP; “YAP-driven” cells (MSTO-211H, NCI-H226) in which YAP located in the nucleus and “YAP-independent” cells (OCM1, NCI-H28) where YAP located in the cytoplasm. […] TEAD inhibitors were evaluated with cell lines with these YAP profiling and mutational status.
The next day, replace it with cell starvation medium containing 1% serum. After one day of growth in the starvation medium, the cells were incubated for 3 days with TEAD inhibitors in a concentration range of 0.01-10 μM. After 3 days, EdU (Invitrogen) at a concentration of 10 µM was added to the starvation medium and incubated for an additional 24 hours. After removing the starvation medium remaining in each well, wash the wells with PBS. Cells were fixed with 4% paraformaldehyde (Electron microscopy sciences) at room temperature for 20 minutes. After removing the fix solution remaining in each well, wash the wells with PBS and the cells were permeabilized for 40 minutes by adding 0.5% triton X-100 (Sigma Aldrich). After removing the permeabilization solution remaining in each well, the EdU labeling was performed according to the instructions of the manufacturer's instructions (Click-iT™ Cell Reaction Buffer Kit, Invitrogen). After the Click reaction for EdU labeling, nuclei were stained with […] (Thermo Scientific) for total cell count analysis. After plate preparation for detection, Image acquisition was performed using the ImageXpress Micro XLS. The acquired images were analyzed using MetaXpress software (molecular devices). Through this experimental method, it was possible to confirm the inhibitory activity of TEAD inhibitors by detection EdU incorporated into proliferating cells.
IC50 for cell proliferation inhibition activity are shown in the Table 2 below and designated within the following ranges. [+++: ≤0.1 μM, ++: >0.1 μM to ≤1 μM, +: >1 μM to ≤10μ, −: >10 μM]
C=CC(=O)Nc1ccc2c(c1)c(/C=C/c1ccc(Cl)cc1)c(C)n2C [Compound 14, (E)-N-(3-(4-Chlorostyryl)-1,2-dimethyl-1H-indol-5-yl)acrylamide] showed an IC50 of 100 to 1000 nM. Work on C=CC(=O)Nc1cnc2c(c1)c(-c1ccc(C)cc1)cn2C [Example 104, N-(1-Methyl-3-(p-tolyl)-1H-pyrrolo[2,3-b]pyridin-5-yl)acrylamide] yielded an IC50 of 100 to 1000 nM. For C=CC(=O)Nc1cnc2c(c1)c(/C=C/c1ccc(C(C)C)cc1)cn2C [Compound 43, (E)-N-(3-(4-Isopropylstyryl)-1-methyl-1H-pyrrolo[2,3-b]pyridin-5-yl)acrylamide], the IC50 was 100 to 1000 nM. C=CC(=O)Nc1cnc2c(c1)c(-c1cccc(OCc3cccc(Cl)c3)c1)cn2C [Compound 52, N-(3-(3-((3-Chlorobenzyl)oxy)phenyl)-1-methyl-1H-pyrrolo[2,3-b]pyridin-5-yl)acrylamide] was tested, and the IC50 was 100 to 1000 nM. C=CC(=O)N(Cc1ccncc1)c1cnc2c(c1)c(/C=C/c1ccc(Cl)cc1)cn2C [Example 68, (E)-N-(3-(4-Chlorostyryl)-1-methyl-1H-pyrrolo[2,3-b]pyridin-5-yl)-N-(pyridin-4-ylmethyl)acrylamide] was tested, and the IC50 was 1000 to 10000 nM. For C=CC(=O)Nc1cnc2c(c1)c(/C=C/c1cccc(F)c1)cn2C [Compound 40, (E)-N-(3-(3-Fluorostyryl)-1-methyl-1H-pyrrolo[2,3-b]pyridin-5-yl)acrylamide], the IC50 was 100 to 1000 nM. For C=CC(=O)Nc1cnc2ccn(CC3CCCCC3)c2c1 [Example 77, N-(1-(Cyclohexylmethyl)-1H-pyrrolo[3,2-b]pyridin-6-yl)acrylamide], the IC50 was 100 to 1000 nM. C=CC(=O)Nc1cnc2c(c1)c(-c1ccc(F)cc1)cn2C [Example 103, N-(3-(4-Fluorophenyl)-1-methyl-1H-pyrrolo[2,3-b]pyridin-5-yl)acrylamide] showed an IC50 of 100 to 1000 nM. C=CC(=O)Nc1cnc2c(c1)c(-c1ccc(C(F)(F)F)cc1)cn2C(C)C [Example 96, N-(1-isopropyl-3-(4-(trifluoromethyl)phenyl)-1H-pyrrolo[2,3-b]pyridin-5-yl)acrylamide] gave an IC50 of 100 to 1000 nM. C=CC(=O)Nc1cnc2c(c1)c(-c1ccc(C(F)(F)F)cc1)cn2C(F)F [Example 129, N-(1-(Difluoromethyl)-3-(4-(trifluoromethyl)phenyl)-1H-pyrrolo[2,3-b]pyridin-5-yl)acrylamide] gave an IC50 of 100 to 1000 nM. Work on C=CC(=O)Nc1ccc2c(/C=C/C3CCC(F)(F)CC3)cn(C)c2c1 [Compound 13, (E)-N-(3-(2-(4,4-Difluorocyclohexyl)vinyl)-1-methyl-1H-indol-6-yl)acrylamide] yielded an IC50 of 1000 to 10000 nM. With C=CC(=O)Nc1cnc2c(c1)c(/C=C/c1cccc(Cl)c1)cn2C [Compound 41, (E)-N-(3-(3-Chlorostyryl)-1-methyl-1H-pyrrolo[2,3-b]pyridin-5-yl)acrylamide] the IC50 was ≤ 100 nM. C=CC(=O)N(Cc1ccccc1)c1cnc2c(c1)c(/C=C/c1ccc(Cl)cc1)cn2C [Example 67, (E)-N-Benzyl-N-(3-(4-chlorostyryl)-1-methyl-1H-pyrrolo[2,3-b]pyridin-5-yl)acrylamide] gave an IC50 of 1000 to 10000 nM. In the case of C=CC(=O)Nc1cnc2c(c1)c(/C=C/c1ccc(F)c(F)c1)cn2C [Compound 44, (E)-N-(3-(3,4-Difluorostyryl)-1-methyl-1H-pyrrolo[2,3-b]pyridin-5-yl)acrylamide], the IC50 is reported as ≤ 100 nM. Work on C=CC(=O)Nc1cnc2c(c1)c(/C=C/c1ccc(OC)c(F)c1)cn2C [Compound 42, (E)-N-(3-(3-Fluoro-4-methoxystyryl)-1-methyl-1H-pyrrolo[2,3-b]pyridin-5-yl)acrylamide] yielded an IC50 of 100 to 1000 nM. For C=CC(=O)Nc1cnc2c(c1)c(/C=C/C1CCCCC1)cn2C [Compound 49, (E)-N-(3-(2-Cyclohexylvinyl)-1-methyl-1H-pyrrolo[2,3-b]pyridin-5-yl)acrylamide], the IC50 was ≤ 100 nM. In the case of C=CC(=O)Nc1cnc2c(c1)c(-c1ccc(CCC)cc1)cn2C [Example 100, N-(1-Methyl-3-(4-propylphenyl)-1H-pyrrolo[2,3-b]pyridin-5-yl)acrylamide], the IC50 is reported as ≤ 100 nM. In the case of C=CC(=O)Nc1cnc2c(c1)c(-c1ccc(C(F)(F)F)cc1)cn2CC [Example 95, N-(1-Ethyl-3-(4-(trifluoromethyl)phenyl)-1H-pyrrolo[2,3-b]pyridin-5-yl)acrylamide], the IC50 is reported as 100 to 1000 nM. C=CC(=O)N(C)c1cnc2c(c1)c(/C=C/C1CCC(F)(F)CC1)cn2C [Example 66, (E)-N-(3-(2-(4,4-Difluorocyclohexyl)vinyl)-1-methyl-1H-pyrrolo[2,3-b]pyridin-5-yl)-N-methylacrylamide] was tested, and the IC50 was 100 to 1000 nM. C=CC(=O)Nc1cnc2c(c1)c(-c1cccc(N3CCCCC3)c1)cn2C [Example 88, N-(1-Methyl-3-(3-(piperidin-1-yl)phenyl)-1H-pyrrolo[2,3-b]pyridin-5-yl)acrylamide] was tested, and the IC50 was 100 to 1000 nM. With C=CC(=O)Nc1cnc2c(c1)c(/C=C/c1ccc(C(F)(F)F)cc1)cn2C [Compound 46, (E)-N-(1-Methyl-3-(4-(trifluoromethyl)styryl)-1H-pyrrolo[2,3-b]pyridin-5-yl)acrylamide] the IC50 was 100 to 1000 nM.
